The LD50 is the dose expected to kill half of the subjects tested.

Where only a bound is given, the exact number is not on record here.

The target of series [1] is T1, mammalian ornithine decarboxylase from rat liver (Rattus norvegicus, UniProt P09057).
T1 construct: mammalian ornithine decarboxylase from rat liver; from tissue; host or cells: rat liver
T1 sequence (P09057 1-461): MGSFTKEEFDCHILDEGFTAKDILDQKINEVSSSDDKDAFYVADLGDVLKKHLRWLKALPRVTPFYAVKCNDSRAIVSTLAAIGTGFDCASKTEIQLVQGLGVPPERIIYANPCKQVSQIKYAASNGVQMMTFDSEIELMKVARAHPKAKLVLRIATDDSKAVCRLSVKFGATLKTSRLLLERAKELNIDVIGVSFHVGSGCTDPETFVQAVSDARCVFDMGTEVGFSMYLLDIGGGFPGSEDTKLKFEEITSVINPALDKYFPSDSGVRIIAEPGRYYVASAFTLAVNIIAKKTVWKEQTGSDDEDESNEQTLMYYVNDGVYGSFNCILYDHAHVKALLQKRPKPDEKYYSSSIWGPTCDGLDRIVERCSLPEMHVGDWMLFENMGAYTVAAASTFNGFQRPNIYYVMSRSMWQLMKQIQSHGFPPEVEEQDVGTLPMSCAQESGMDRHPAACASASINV
The series is described as follows: Inactivation of mammalian ornithine decarboxylase. Format: biochemical. To be noted: rat liver enzyme.

Series [2] deals with T2, bacterial ornithine decarboxylase from E. Coli (Escherichia coli, UniProt P21169).
T2 construct: bacterial ornithine decarboxylase from E. Coli; host or cells: E. coli
T2 sequence (P21169 whole entry): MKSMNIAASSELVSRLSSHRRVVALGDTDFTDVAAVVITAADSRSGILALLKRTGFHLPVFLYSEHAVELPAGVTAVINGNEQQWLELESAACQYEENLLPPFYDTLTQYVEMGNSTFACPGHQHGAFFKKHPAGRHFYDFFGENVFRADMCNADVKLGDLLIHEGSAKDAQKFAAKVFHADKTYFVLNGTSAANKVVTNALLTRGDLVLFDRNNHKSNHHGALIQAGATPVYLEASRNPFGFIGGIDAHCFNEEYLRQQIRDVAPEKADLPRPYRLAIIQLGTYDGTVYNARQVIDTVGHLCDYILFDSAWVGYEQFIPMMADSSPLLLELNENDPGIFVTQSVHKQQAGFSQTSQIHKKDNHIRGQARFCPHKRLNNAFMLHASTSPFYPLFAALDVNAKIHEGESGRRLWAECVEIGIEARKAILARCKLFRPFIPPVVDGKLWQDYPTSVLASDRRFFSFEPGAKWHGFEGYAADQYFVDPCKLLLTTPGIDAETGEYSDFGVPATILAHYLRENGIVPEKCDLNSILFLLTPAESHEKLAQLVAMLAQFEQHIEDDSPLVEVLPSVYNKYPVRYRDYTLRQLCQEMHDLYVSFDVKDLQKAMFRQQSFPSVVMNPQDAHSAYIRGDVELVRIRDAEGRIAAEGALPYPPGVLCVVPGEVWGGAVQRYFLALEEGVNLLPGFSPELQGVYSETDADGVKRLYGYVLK
The series is described as follows: Inactivation of bacterial ornithine decarboxylase. Format: biochemical. Conditions: E. Coli enzyme.

For the next series, the system named is dermatophytes. The series is described as follows: In vitro anti-microbial activity (dermatophytes). Format: cell-based.
The target in series [3] is T3, mammalian DOPA decarboxylase from porcine kidney (Sus scrofa, UniProt P80041).
T3 construct: isolated and purified from porcine kidney; from tissue; host or cells: porcine kidney
T3 sequence (P80041 1-486): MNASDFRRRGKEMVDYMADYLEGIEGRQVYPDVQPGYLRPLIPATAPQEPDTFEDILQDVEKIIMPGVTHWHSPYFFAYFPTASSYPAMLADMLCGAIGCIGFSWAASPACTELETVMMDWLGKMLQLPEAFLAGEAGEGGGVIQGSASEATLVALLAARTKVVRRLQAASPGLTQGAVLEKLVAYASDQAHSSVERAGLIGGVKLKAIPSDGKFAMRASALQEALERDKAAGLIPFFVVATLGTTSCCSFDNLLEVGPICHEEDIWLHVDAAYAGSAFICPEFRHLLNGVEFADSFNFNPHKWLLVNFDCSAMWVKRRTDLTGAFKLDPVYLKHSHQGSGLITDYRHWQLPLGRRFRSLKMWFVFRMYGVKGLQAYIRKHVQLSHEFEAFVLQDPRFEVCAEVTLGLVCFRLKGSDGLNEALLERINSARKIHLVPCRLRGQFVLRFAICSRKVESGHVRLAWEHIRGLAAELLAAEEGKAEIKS
The series is described as follows: Time dependent inactivation of DOPA decarboxylase. Conditions: porcine kidney enzyme. Format: biochemical. The text has this:
(§1) Mammalian DOPA decarboxylase was isolated and purified from porcine kidney by the procedure of Borri-Voltatorni et al [Eur. J. Biochem., 93, 181 (1979)] with modifications as introduced by Rudd and Thanassi [Biochemistry, 20, 7469 (1981)]. Bacterial L-phenylalanine and L-tyrosine decarboxylases ex Streptococcus faecallis were purchased from Sigma Chemical Co. as crude extracts and studied without further purification.
Time dependent inactivation of mammalian DOPA decarboxylase was monitored by incubation of enzyme with 4 to 100 molar equivalent excess of 2-amino-2-(3,4-dihydroxybenzyl)penta-3,4-dienoic acid at pH 6.8 and 37° C. At appropriate time intervals, aliquots of the mixture were withdrawn, diluted 30-fold into excess L-DOPA (2 mM) and residual DOPA decarboxylase activity determined.
DOPA decarboxylase activity was routinely measured by liquid chromatography and electrochemical detection of catecholamine products. DOPA decarboxylase (1-5 micrograms, 1-20 units) was incubated with L-DOPA (2000 micromolar, 150 microliters) and PLP (10 micromolar) in 0.1M phosphate at pH 6.8 and 37° C. After 1-10 minutes, the reaction was quenched with citric acid (2M, 25 microliters), diluted two-fold with distilled water and 10 microliter aliquots were analyzed by HPLC on a reverse phase Brownlee RP-18 column. Isocratic elution with pH 4.35 buffer [0.1M NaOAc ([…]), 0.1M citric acid (32% v/v) and methanol (15% v/v)] at a flow rate of 2.5 ml/min. afforded baseline resolution of dopamine (RT=2.8 min.) from L-DOPA (RT=1.9 min.).
Quantification of dopamine was accomplished by preoxidation of the catechol to the ortho quinone at +0.25 volts in the first analytical electrochemical cell, followed by the selective reduction of ortho quinone in the second analytical cell set at -0.25 volts. This configuration for the ESA electrochemical detector allowed highly sensitive and selective detection of catecholamines (less than 10 picomoles/injection).

Series [4] concerns the target T4, bacterial tyrosine decarboxylase from Streptococcus faecallis (Enterococcus faecalis, UniProt Q838D6).
T4 construct: purchased from Sigma Chemical Co. as crude extracts; purchased Sigma Chemical Co; host or cells: Streptococcus faecalis, crude extract
T4 sequence (Q838D6 1-620): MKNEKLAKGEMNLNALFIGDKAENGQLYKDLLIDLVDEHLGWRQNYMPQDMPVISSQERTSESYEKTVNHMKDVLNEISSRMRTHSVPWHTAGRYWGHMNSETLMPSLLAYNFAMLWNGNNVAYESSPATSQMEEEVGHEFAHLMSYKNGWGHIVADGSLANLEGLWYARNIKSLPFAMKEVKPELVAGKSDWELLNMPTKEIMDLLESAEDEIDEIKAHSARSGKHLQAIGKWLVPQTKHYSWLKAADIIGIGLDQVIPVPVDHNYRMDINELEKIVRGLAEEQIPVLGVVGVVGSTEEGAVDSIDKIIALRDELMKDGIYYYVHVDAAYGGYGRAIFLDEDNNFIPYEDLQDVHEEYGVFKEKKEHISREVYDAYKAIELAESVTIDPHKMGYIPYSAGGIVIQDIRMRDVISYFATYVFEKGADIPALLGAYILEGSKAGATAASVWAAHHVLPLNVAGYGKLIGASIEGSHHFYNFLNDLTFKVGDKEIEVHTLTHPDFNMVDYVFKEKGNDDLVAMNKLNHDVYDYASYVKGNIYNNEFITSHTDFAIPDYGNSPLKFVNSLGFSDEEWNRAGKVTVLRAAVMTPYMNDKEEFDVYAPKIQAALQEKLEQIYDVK
As to the kind of experiment: Time dependent inactivation of tyrosine decarboxylase. Conditions: Streptococcus faecallis enzyme. Format: biochemical.
Excerpt: as §1
(§2) The time dependent inactivation of bacterial aromatic amino acid decarboxylases with 200-1000 micromolar inhibitor, e.g. 2-amino-2-(4-hydroxybenzyl)-penta-3,4-dienoic acid or 2-amino-2-benzylpenta-3,4-dienoic acid, was monitored at pH 5.5 and 37° C. Residual activity of tyrosine decarboxylase ex Streptococcus faecallis was determined by measurement of p-tyramine production at pH 5.5 and 37° C. p-Tyramine was separated by HPLC and quantified by electrochemical oxidation at +0.7 volts.

Series [5] addresses T5, phenylalanine decarboxylase from Streptococcus faecallis (Enterococcus faecalis, UniProt Q838D6).
T5 construct: L-phenylalanine substrate, phenylethylamine by GC
T5 sequence (Q838D6 1-620): T4 sequence (Q838D6 1-620)
The series is described as follows: Time dependent inactivation of phenylalanine decarboxylase. Format: biochemical. To be noted: Streptococcus faecallis enzyme.
Excerpt: as §1, §2
Residual activity of L-phenylalanine decarboxylase ex Streptococcus faecallis with L-phenylalanine (2 mM) as substrate was meaasured by gas chromatographic analysis of phenylethylamine production. Direct injection of enzymatic reaction mixture (1-5 microliters) onto a standard glass column packed with 10% Apiezon L on Chromosorb 80/100 deactivated with 2% KOH allowed separation of aromatic amine from the reaction mixture. FID detection quantified the rate of product formation.

Another series concerns Male Sim:(S.D.)fBR rats. As to the kind of experiment: In vivo potentiation of L-DOPA induced behaviors. Conditions: for Mean Behavior Score at 60 min.: score scale 0-6, before 200 mg/kg L-DOPA i.p. Set-up: species or system rat. The protocol: Male Sim:(S.D.)fBR rats weighing 180-335 g were used for these experiments. Groups of 5 rats were individually housed and received water, or various doses of either 2-amino-2-(3-hydroxybenzyl)penta-3,4-dienoic acid or 2-amino-2-(3,4-dihydroxybenzyl)penta-3,4-dienoic acid 30 l minutes before 200 mg/kg of L-DOPA, i.p. Beginning 15 minutes later, behavioral observations were made at 15 minutes intervals for 2 hours. Behavoir was scored as follows:
3=Alert with intermittent sniffing

Series [6] in a line: Toxicity (acute, oral, mouse). Type of series: in vivo. Conditions: in vivo; acute, oral, mouse. The protocol: (§3) 2-amino-2-(3-hydroxybenzyl)penta-3,4-dienoic acid prepared in CMC vehicle was administered once daily to groups of 6 male mice at doses 0, 62.5, 125, 250, and 500 mg/kg. […] Therefore, the LD50 (acute, oral, mouse) for 2-amino-2-(3-hydroxybenzyl)penta-3,4-dienoic acid is greater than 500 mg/kg.

The test system of a further series is male mice. As to the kind of experiment: Toxicity (acute, oral, mouse). Type of series: in vivo. Conditions: male mice; 62.5, 125, 250 and 500 mg/kg in CMC vehicle; observed for 21 days. The protocol: as §3

Take `C=C=CC(N)(CCCN)C(=O)O` (stereo not drawn) [2-amino-2-(3-amino-n-propyl)penta-3,4-dienoic acid]: the “irreversible inactivation of ornithine decarboxylase” value in series [1] and in [2] was “irreversible inactivators” in each case.
In the case of `C=C=C(C)C(N)C(=O)O` (stereo not drawn) [2-amino-3-methylpenta-3,4-dienoic acid], the “activity in vitro against a spectrum of dermatophytes” value in the series with dermatophytes was “active”.
As for `C=C=CC(N)(Cc1cccc(O)c1)C(=O)O` (stereo not drawn) [2-amino-2-(3-hydroxybenzyl)penta-3,4-dienoic acid], the “irreversible inactivation of DOPA decarboxylase” value in series [3] is reported as “irreversible inactivators”. The “irreversible inactivation of tyrosine decarboxylase” value in [4] was “irreversible inactivators”. For the same compound, in series [5], the “irreversible inactivation of phenylalanine decarboxylase” value was “irreversible inactivators”. For the same compound, the “potentiation of the behaviors induced by L-DOPA” value in the series with Male Sim:(S.D.)fBR rats (3-30 mg/kg i.p. or 30-150 mg/kg s.c., 30 minutes before 200 mg/kg L-DOPA i.p.) was “potentiated the behaviors induced by L-DOPA”. For the same compound, the “Mean Behavior Score at 60 min.” value in the series with Male Sim:(S.D.)fBR rats (3-30 mg/kg i.p.) and in the series with Male Sim:(S.D.)fBR rats (30-150 mg/kg s.c.) was 3.4 throughout. Moreover, in the series with Male Sim:(S.D.)fBR rats (3 to 30 mg/kg i.p. or 30 to 150 mg/kg s.c.), the “potentiation of DOPA behaviors” value was “potentiate DOPA behaviors”. In series [6], this compound came in with an LD50 at 504 h of over 500 mg/kg. Moreover, in the series with male mice, the deaths result was “no deaths”.

The values above are taken from patent US4661510A, “α-allenic-α-amino acids as enzyme inhibitors” (priority 1985, dated 1987).
